The text below walks through data of patent publication US9708286B2, “Ingenol-3-acylates III and ingenol-3-carbamates” (LEO Laboratories Limited, priority 2010, dated 2017).

The subject of experiment [1] is PMN's (polymorphonuclear leukocytes). Put plainly: Neutrophil oxidative burst. It counts as cell-based. The note with it: Leukocyte, 40 min, read-out: Neutrophil oxidative burst Rel EC50 range, PMN from buffy coats, 40 min at RT, hydroethidine fluorescence; normalized to 5×10^−7 M PEP0005. On the procedure: PMN's (polymorphonuclear leukocytes) were isolated and purified from fresh buffy coats by sequential sedimentation, density centrifugation and lysis of contaminating erythrocytes. Buffy coats were incubated with 2% methocel for 30-45 min to differentially sediment red blood cells. The leukocyte-rich supernatant was transferred to lymphoprep tubes to remove mononuclear cells by density centrifugation (400×g, 30 min). The pellet was resuspended and any remaining erythrocytes lysed using 0.2% NaCl for 30 sec before restoring isotonicity by the addition of 1.2% NaCl. This step was repeated until the cell pellet appears relatively free of red blood cells. Cells were resuspended in DPBS (Dulbecco's Phosphate Buffered Saline) (w.o. Ca^2+, Mg^2+) and the concentration adjusted to 1.4×10^6 cells/ml in HBSS (Hanks Balanced Salt solution) (w Ca^2+, Mg^2±) containing 0.1% BSA (Bovine Serum Albumin) and 5 mM glucose just prior to assay initiation. Titrated reference and test compounds were pre-mixed with HE (Hydroethidine) (10 μM final assay concentration) before addition to 96-well plates containing 2.5×10^5 cells. Following 40 min incubation at RT, changes in the respiratory burst was estimated by measuring fluorescence at 579 nm (excitation: 485 nm) using an Envision plate reader.
Test compound titration curves were fitted to a four-parameter sigmoidal curve after normalizing the effect of the test compound to the effect of the positive control (5×10^−7 M PEP0005). Rel EC50 denotes the concentration of test compound producing an effect that is midway between the fitted top and bottom. Abs EC50 is the concentration of test compound that provokes a response corresponding to 50% of the maximal effect associated with the positive control (5×10^−7 M PEP0005).

The subject of the next experiment is HeLa cells. Nature of the experiment: Necrosis assay. It counts as cell-based. The note with it: Homo sapiens, HeLa, 0.5 h, read-out: HeLa necrosis EC50 range. On the procedure:
HeLa cells (ATCC CCL-002) were grown in minimal essential medium (Invitrogen catalog no. 42360) containing 10% fetal bovine serum, 100 IU/ml penicillin and 100 μg/ml streptomycin. 4,000-6,000 cells were seeded into 96-well black ViewPlates-plates, clear bottom, (Perkin Elmer) in 100 μl medium and incubated overnight. Compounds were dissolved and pre-diluted in DMSO in 96-well polypropylene plates (Greiner) in a concentration range of 15 μM to 600 μM. At the time of the experiment cell plates were placed on heating blocks at 37° C., medium was removed and 40 μl fresh, pre-warmed medium was added per well. Cells were incubated for 15 min before addition of compounds. In parallel, 3 μl of compounds were diluted with 197 μl growth medium on a Tecan freedom-EVO pipetting station using 250 μl/s pipetting speed, in order to ensure effective mixing of the highly concentrated compound solutions with the aqueous phase. These pre-dilution plates were then equilibrated on heating blocks at 37° C. for 10 min. 80 μl pre-diluted compound were transferred manually to the corresponding wells containing HeLa cells yielding compound concentrations of 10 μM to 400 μM. Control conditions were 1% DMSO in growth medium (100% viability) and 400 μM ingenol mebutate in growth medium (0% viability). Plates were incubated on the heating blocks at 37° C. for 30 min. At the end of the incubation 10 μl PrestoBlue reagent (Invitrogen) were added to each well, plates were sealed with black seal, followed by incubation at 37° C. for 10 min with gentle shaking (150 rpm). Subsequently, plates were placed at room temperature for 20-30 min. Plates were read immediately after on an Envision Fluorescence reader (Perkin Elmer) with excitation at 535 nm and emission at 630 nm. Test compound titration curves were fitted to a four-parameter sigmoidal curve after normalizing the effect of the test compound to the effect of the positive control (4 10^−4 M PEP0005/ingenol mebutate). AbsEC50 denotes the concentration of test compound producing 50% effect.

In general, EC50 refers to the concentration that produces a half-maximal response.

As for `CC1=C[C@]23C(=O)[C@@H](C=C(CO)[C@@H](O)[C@]2(O)[C@H]1OC(=O)C12CCC(C)(C(=O)O1)C2(C)C)[C@H]1[C@@H](C[C@H]3C)C1(C)C` [Compound 503, Ingenol 3-(1S-camphanate)], in experiment [1], the half-maximal effective concentration (EC50) lay within 20 to 100 nM. Turning to `CC1=C[C@]23C(=O)[C@@H](C=C(CO)[C@@H](O)[C@]2(O)[C@H]1OC(=O)c1cc(-c2ccccc2)on1)[C@H]1[C@@H](C[C@H]3C)C1(C)C` [Compound 511, Ingenol 3-(5-phenylisoxazole-3-carboxylate)], the figures for the half-maximal effective concentration (EC50) (in experiment [1]; in the experiment with HeLa cells) were 20 to 100 nM and under 150000 nM, respectively. The like results for `CC1=C[C@]23C(=O)[C@@H](C=C(CO)[C@@H](O)[C@]2(O)[C@H]1OC(=O)c1nccc2ccccc12)[C@H]1[C@@H](C[C@H]3C)C1(C)C` [Compound 512, Ingenol 3-(isoquinoline-1-carboxylate)] were, in that order, 20 to 100 nM and under 150000 nM. Consider `CC1=C[C@]23C(=O)[C@@H](C=C(CO)[C@@H](O)[C@]2(O)[C@H]1OC(=O)c1ccnc2ccccc12)[C@H]1[C@@H](C[C@H]3C)C1(C)C` [Compound 513, Ingenol 3-(quinoline-4-carboxylate)], for which the EC50 in experiment [1] was under 20 nM; with HeLa cells, under 150000 nM. In the case of `CC1=C[C@]23C(=O)[C@@H](C=C(CO)[C@@H](O)[C@]2(O)[C@H]1OC(=O)c1cncn1-c1ccccc1)[C@H]1[C@@H](C[C@H]3C)C1(C)C` [Compound 515, Ingenol 3-(3-phenylimidazole-4-carboxylate)], the EC50 was under 20 nM in experiment [1] and under 150000 nM with HeLa cells. The like results for `CC1=C[C@]23C(=O)[C@@H](C=C(CO)[C@@H](O)[C@]2(O)[C@H]1OC(=O)c1ncccc1Br)[C@H]1[C@@H](C[C@H]3C)C1(C)C` [Compound 524, Ingenol 3-(3-bromopyridine-2-carboxylate)] were, in that order, 20 to 100 nM and 150000 to 350000 nM. The like results for `CC1=C[C@]23C(=O)[C@@H](C=C(CO)[C@@H](O)[C@]2(O)[C@H]1OC(=O)c1c(C)nc2ccccn12)[C@H]1[C@@H](C[C@H]3C)C1(C)C` [Compound 535, Ingenol 3-(2-methylimidazo[1,2-a]pyridine-3-carboxylate)] were, in that order, under 20 nM and 150000 to 350000 nM.

In the case of `CCn1c(C)cc(C)c1C(=O)O[C@H]1C(C)=C[C@]23C(=O)[C@@H](C=C(CO)[C@@H](O)[C@]12O)[C@H]1[C@@H](C[C@H]3C)C1(C)C` [Compound 543, Ingenol 3-(1-ethyl-3,5-dimethylpyrrole-2-carboxylate)], the values for the EC50 (in experiment [1]; in the experiment with HeLa cells) were under 20 nM and under 150000 nM, respectively.

As for `CC1=C[C@]23C(=O)[C@@H](C=C(CO)[C@@H](O)[C@]2(O)[C@H]1OC(=O)[C@@H]1CCCN1c1ccccc1)[C@H]1[C@@H](C[C@H]3C)C1(C)C` [Compound 545, Ingenol 3-((2S)-1-phenylpyrrolidine-2-carboxylate)], the EC50 is 20 to 100 nM in experiment [1] and 150000 to 350000 nM with HeLa cells.

As for `CC1=C[C@]23C(=O)[C@@H](C=C(CO)[C@@H](O)[C@]2(O)[C@H]1OC(=O)c1c(C)nn(CC2CCOCC2)c1C)[C@H]1[C@@H](C[C@H]3C)C1(C)C` [Compound 561, Ingenol 3-(3,5-dimethyl-1-(tetrahydropyran-4-ylmethyl)pyrazole-4-carboxylate)], the EC50 is 20 to 100 nM in experiment [1] and 150000 to 350000 nM with HeLa cells. Turning to `CC1=C[C@]23C(=O)[C@@H](C=C(CO)[C@@H](O)[C@]2(O)[C@H]1OC(=O)c1sc(=O)[nH]c1C)[C@H]1[C@@H](C[C@H]3C)C1(C)C` [Compound 562, Ingenol 3-(4-methyl-2-oxo-3H-thiazole-5-carboxylate)], the EC50 in experiment [1] is 20 to 100 nM; in the experiment on HeLa cells, over 350000 nM. For the compound `CC1=C[C@]23C(=O)[C@@H](C=C(CO)[C@@H](O)[C@]2(O)[C@H]1OC(=O)c1noc(C)c1C)[C@H]1[C@@H](C[C@H]3C)C1(C)C` [Compound 569, Ingenol 3-(4,5-dimethylisoxazole-3-carboxylate)], the EC50 lay in the range of 20 to 100 nM in experiment [1] and 150000 to 350000 nM in the experiment with HeLa cells. `CCNC(=O)O[C@H]1C(C)=C[C@]23C(=O)[C@@H](C=C(CO)[C@@H](O)[C@]12O)[C@H]1[C@@H](C[C@H]3C)C1(C)C` [Compound 701, Ingenol 3-(N-ethyl-carbamate)]: the EC50 in experiment [1] was in the range of 20 to 100 nM. On to `CC1=C[C@]23C(=O)[C@@H](C=C(CO)[C@@H](O)[C@]2(O)[C@H]1OC(=O)N(C)C(C)CC#N)[C@H]1[C@@H](C[C@H]3C)C1(C)C` (some centres unmarked) [Compound 715, Ingenol 3-(N-(2-cyano-1-methyl-ethyl)-N-methyl-carbamate)], for which the EC50 in experiment [1] is over 100 nM; with HeLa cells it was over 350000 nM.

On to `CC1=C[C@]23C(=O)[C@@H](C=C(CO)[C@@H](O)[C@]2(O)[C@H]1OC(=O)N(C)c1cc(C)nn1C)[C@H]1[C@@H](C[C@H]3C)C1(C)C` [Compound 719, Ingenol 3-(N-(2,5-dimethylpyrazol-3-yl)-N-methyl-carbamate)], for which the EC50 in experiment [1] is over 100 nM; in the experiment with HeLa cells it was over 350000 nM.

Regarding `CC1=C[C@]23C(=O)[C@@H](C=C(CO)[C@@H](O)[C@]2(O)[C@H]1OC(=O)N1CCC(=O)c2ccccc21)[C@H]1[C@@H](C[C@H]3C)C1(C)C` [Compound 725, Ingenol 3-(4-oxo-2,3-dihydroquinoline-1-carboxylate)], the EC50 was under 20 nM in experiment [1] and 150000 to 350000 nM with HeLa cells. With `CC1=C[C@]23C(=O)[C@@H](C=C(CO)[C@@H](O)[C@]2(O)[C@H]1OC(=O)N(C)c1ccc(F)cc1)[C@H]1[C@@H](C[C@H]3C)C1(C)C` [Compound 730, Ingenol 3-(N-(4-fluoro-phenyl)-N-methyl-carbamate)], the EC50 with HeLa cells is 150000 to 350000 nM. Regarding `COc1ccccc1N(C)C(=O)O[C@H]1C(C)=C[C@]23C(=O)[C@@H](C=C(CO)[C@@H](O)[C@]12O)[C@H]1[C@@H](C[C@H]3C)C1(C)C` [Compound 731, Ingenol 3-(N-methyl-N-(2-methoxy-phenyl)-carbamate)], the figures for the EC50 (in experiment [1]; in the experiment on HeLa cells) were 20 to 100 nM and 150000 to 350000 nM, respectively. The like results for `CC1=C[C@]23C(=O)[C@@H](C=C(CO)[C@@H](O)[C@]2(O)[C@H]1OC(=O)N1CC(=O)Nc2ccccc21)[C@H]1[C@@H](C[C@H]3C)C1(C)C` [Compound 733, Ingenol 3-(3-oxo-2,4-dihydroquinoxaline-1-carboxylate)] were, in that order, over 100 nM and 150000 to 350000 nM. The like results for `CC1=C[C@]23C(=O)[C@@H](C=C(CO)[C@@H](O)[C@]2(O)[C@H]1OC(=O)N1CCCC1C(F)(F)F)[C@H]1[C@@H](C[C@H]3C)C1(C)C` (some centres unmarked) [Compound 735, Ingenol 3-(2-trifluoromethyl-pyrrolidine-1-carboxylate)] were, in that order, under 20 nM and 150000 to 350000 nM. For `CC1=C[C@]23C(=O)[C@@H](C=C(CO)[C@@H](O)[C@]2(O)[C@H]1OC(=O)N(C)C1CCN(C(=O)OC(C)(C)C)CC1)[C@H]1[C@@H](C[C@H]3C)C1(C)C` [Compound 742, Ingenol 3-(N-methyl-N—(N-(tert-butyloxycarbonyl)-4-piperidyl)-carbamate)] the same measures were 20 to 100 nM and 150000 to 350000 nM. Take `CC1=C[C@]23C(=O)[C@@H](C=C(CO)[C@@H](O)[C@]2(O)[C@H]1OC(=O)N(C)C1CCC1)[C@H]1[C@@H](C[C@H]3C)C1(C)C` [Compound 749, Ingenol 3-(N-cyclobutyl-N-methyl-carbamate)]: the concentration giving a half-maximal response (EC50) was under 20 nM in experiment [1] and over 350000 nM with HeLa cells.
